The values that follow come from US20200172529A1, “Chemical Compound, Pharmaceutical Composition Thereof, and Use and Application Thereof” (Beijing Hanmi Pharm. Co., Ltd., priority 2017, published 2020).

Assay type in all cases: biochemical
The target in one assay is T1, TYK2 kinase (Homo sapiens, UniProt P29597).
T1 construct: purchased Life Technologies PR8440C
Description: Inhibition assay of TYK2 kinase activity (ADP-Glo Kinase Assay). A digest of the protocol: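 Enzyme at 0.8 ng/mL (2-fold final) in 40 mM Tris-HCl pH 7.5, 20 mM MgCl2, 0.1 mg/mL BSA, 1 mM DTT, preincubated 10 min with compound (6 points, 10-fold dilutions from 10 μM). ATP plus polyE4Y1 then added for 60 min at room temperature. ADP-Glo luminescence read and IC50 derived.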
(ADP-Glo turns the ADP formed in a reaction into a luminescent signal.)

A further assay concerns the target JAK1 kinase (Homo sapiens, UniProt P23458). Description: Inhibition assay of JAK1 kinase activity (ADP-Glo Kinase Assay). The text has this:
Inhibition assay of JAK1 kinase activity: the method in ADP-Glo™ Kinase Assay (Promega, V9102) was used to determine the inhibitory activity of the test compounds against JAK1 kinase.

A further assay addresses JAK2 kinase (Homo sapiens, UniProt O60674). Briefly: Inhibition assay of JAK2 kinase activity (ADP-Glo Kinase Assay). The text has this:
Inhibition assay of JAK2 kinase activity: the method in ADP-Glo™ Kinase Assay (Promega, V9102) was used to determine the inhibitory activity of the test compounds against JAK2 kinase.

For another assay, the target named is T2, JAK3 kinase (Homo sapiens, UniProt P52333).
T2 sequence (P52333 1-1124): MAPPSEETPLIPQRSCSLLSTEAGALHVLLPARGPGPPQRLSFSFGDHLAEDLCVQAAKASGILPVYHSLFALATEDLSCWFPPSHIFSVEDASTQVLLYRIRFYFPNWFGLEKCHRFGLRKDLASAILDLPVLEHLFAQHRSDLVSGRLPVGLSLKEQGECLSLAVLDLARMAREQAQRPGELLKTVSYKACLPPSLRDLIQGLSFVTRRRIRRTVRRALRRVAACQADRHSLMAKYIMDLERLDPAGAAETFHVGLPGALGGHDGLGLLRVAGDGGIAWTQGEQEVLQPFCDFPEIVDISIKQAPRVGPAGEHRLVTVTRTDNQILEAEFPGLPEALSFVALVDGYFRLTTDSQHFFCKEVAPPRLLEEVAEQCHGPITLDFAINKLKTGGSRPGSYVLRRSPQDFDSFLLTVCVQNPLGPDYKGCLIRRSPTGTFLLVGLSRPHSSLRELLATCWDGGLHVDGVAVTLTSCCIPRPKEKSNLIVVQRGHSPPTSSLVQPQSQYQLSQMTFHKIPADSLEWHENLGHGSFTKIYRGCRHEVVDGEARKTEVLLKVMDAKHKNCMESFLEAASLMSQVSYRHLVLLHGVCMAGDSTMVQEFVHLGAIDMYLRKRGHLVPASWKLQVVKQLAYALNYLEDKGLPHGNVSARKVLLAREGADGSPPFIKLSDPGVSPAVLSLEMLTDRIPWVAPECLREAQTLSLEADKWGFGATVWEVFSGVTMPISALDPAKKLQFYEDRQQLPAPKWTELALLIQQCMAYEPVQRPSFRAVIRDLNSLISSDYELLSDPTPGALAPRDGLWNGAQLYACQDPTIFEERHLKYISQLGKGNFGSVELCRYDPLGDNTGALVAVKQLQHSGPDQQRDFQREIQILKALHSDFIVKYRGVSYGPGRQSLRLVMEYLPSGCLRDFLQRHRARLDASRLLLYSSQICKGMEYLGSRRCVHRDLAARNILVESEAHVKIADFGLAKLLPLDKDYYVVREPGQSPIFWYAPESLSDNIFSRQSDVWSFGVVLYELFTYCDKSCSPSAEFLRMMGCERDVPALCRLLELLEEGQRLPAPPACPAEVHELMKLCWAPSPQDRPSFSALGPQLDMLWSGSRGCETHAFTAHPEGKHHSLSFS
Description: Inhibition assay of JAK3 kinase activity (ADP-Glo Kinase Assay). The text has this:
Inhibition assay of JAK3 kinase activity: the method in ADP-Glo™ Kinase Assay (Promega, V9102) was used to determine the inhibitory activity of the test compounds against JAK3 kinase.

The target of a further assay is SYK kinase (Homo sapiens, UniProt P43405). Description: Inhibition assay of SYK kinase activity (ADP-Glo Kinase Assay). The text has this:
Inhibition assay of SYK kinase activity: the method in ADP-Glo™ Kinase Assay (Promega, V9102) was used to determine the inhibitory activity of the test compounds against SYK kinase.

SMILES strings stand for the structures. pIC50: −log10 of the molar value. A value given as a limit tells only on which side of the number the result lay.

Sequence of JAK2 kinase (O60674 whole entry): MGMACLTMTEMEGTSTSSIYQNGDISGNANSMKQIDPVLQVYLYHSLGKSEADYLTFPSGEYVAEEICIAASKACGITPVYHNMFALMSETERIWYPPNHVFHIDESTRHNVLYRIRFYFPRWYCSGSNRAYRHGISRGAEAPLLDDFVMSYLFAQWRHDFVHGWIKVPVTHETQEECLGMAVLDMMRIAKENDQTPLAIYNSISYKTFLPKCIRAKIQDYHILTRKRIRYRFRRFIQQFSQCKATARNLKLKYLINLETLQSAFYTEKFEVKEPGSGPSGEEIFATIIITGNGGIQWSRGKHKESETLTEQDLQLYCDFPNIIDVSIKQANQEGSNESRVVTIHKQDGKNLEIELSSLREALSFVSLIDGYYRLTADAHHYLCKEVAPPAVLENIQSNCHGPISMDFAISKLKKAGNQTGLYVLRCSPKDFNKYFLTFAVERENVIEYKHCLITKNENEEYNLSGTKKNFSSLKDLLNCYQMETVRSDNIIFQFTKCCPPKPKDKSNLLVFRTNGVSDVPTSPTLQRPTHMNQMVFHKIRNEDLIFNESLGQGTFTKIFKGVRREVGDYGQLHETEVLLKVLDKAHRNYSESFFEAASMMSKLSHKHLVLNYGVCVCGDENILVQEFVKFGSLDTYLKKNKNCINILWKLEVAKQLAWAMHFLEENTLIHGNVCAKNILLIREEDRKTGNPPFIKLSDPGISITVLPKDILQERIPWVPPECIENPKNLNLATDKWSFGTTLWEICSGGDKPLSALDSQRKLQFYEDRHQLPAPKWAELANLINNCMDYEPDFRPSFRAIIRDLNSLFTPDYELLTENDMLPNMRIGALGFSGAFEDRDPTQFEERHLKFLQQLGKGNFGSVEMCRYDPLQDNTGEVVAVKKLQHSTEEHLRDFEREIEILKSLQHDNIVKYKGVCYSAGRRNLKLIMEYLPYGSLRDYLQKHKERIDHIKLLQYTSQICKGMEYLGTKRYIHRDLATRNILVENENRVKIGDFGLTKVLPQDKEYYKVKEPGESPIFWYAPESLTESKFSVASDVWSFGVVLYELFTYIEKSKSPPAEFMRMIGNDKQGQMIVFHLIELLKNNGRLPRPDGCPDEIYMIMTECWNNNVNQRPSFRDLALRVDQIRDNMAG
T1 sequence (P29597 whole entry): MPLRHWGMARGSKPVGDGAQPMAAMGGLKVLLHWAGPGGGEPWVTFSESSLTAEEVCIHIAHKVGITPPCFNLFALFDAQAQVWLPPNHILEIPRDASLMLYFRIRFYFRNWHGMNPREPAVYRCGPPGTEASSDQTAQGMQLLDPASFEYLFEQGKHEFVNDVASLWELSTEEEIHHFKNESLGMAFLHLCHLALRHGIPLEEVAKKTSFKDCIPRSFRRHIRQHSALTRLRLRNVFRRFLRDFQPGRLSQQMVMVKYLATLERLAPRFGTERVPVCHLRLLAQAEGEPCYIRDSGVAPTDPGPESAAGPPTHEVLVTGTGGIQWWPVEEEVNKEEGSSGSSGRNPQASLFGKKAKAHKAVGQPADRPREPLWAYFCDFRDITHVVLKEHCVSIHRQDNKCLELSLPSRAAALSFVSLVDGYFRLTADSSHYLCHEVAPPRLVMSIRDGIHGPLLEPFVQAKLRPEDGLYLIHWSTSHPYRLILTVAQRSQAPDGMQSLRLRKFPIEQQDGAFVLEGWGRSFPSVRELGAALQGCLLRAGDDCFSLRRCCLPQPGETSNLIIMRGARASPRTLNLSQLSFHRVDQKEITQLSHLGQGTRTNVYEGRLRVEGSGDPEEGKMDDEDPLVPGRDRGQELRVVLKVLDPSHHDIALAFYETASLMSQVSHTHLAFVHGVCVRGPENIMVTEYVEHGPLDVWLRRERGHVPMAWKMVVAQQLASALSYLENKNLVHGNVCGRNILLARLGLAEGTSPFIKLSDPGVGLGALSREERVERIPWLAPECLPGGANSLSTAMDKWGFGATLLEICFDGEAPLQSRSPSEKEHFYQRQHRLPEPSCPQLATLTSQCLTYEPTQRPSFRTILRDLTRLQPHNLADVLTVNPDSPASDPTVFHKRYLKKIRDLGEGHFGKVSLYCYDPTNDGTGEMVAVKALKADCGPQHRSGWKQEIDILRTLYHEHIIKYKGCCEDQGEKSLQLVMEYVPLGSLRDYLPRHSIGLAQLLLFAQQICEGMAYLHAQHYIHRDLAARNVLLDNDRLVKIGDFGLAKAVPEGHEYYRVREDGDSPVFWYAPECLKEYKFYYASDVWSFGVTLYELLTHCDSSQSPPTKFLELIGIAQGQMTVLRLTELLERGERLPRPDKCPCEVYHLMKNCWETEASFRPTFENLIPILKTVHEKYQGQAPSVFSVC
Sequence of JAK1 kinase (P23458 whole entry): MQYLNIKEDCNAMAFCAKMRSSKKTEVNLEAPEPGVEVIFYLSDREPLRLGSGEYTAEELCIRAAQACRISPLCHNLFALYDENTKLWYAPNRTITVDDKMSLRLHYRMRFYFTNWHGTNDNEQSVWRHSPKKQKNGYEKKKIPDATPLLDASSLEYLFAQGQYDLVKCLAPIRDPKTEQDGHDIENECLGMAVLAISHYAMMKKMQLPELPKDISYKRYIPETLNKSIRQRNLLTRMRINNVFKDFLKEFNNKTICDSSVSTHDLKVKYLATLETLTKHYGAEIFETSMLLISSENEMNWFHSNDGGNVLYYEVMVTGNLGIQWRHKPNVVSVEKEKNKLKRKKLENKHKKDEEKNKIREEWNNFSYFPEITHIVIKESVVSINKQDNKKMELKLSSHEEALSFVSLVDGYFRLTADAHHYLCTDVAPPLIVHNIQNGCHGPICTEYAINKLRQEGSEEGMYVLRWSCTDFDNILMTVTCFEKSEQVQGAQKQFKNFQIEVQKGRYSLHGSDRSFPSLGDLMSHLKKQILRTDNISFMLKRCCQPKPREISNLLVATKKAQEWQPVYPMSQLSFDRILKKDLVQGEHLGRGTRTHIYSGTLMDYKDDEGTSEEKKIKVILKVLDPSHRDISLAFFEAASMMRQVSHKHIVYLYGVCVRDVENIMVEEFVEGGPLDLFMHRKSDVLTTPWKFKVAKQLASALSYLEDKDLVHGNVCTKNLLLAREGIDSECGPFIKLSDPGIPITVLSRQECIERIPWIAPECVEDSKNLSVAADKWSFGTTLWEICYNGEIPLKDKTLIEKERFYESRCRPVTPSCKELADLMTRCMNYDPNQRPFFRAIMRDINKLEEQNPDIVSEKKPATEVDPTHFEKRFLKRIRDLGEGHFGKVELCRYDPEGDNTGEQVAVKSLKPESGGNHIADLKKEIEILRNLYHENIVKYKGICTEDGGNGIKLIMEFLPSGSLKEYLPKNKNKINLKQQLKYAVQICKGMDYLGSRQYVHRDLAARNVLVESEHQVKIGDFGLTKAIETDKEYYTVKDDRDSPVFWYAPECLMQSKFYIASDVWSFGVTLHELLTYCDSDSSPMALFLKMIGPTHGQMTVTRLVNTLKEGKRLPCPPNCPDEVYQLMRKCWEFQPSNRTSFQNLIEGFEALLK

As usually defined, the pIC50 is −log10 of the IC50, conventionally taken in molar units. Read a high pIC50 as a low IC50. Regarding `CC(C)OCCO[C@H]1CNc2cc(Nc3ncc(C(N)=O)c(NC4CC4)n3)ccc2OC1` [Example 96, 4-(cyclopropylamino)-2-(((S)-2,3,4,5-tetrahydro-3-(2-isopropoxyethoxy)benzo[b][1,4]oxazepin-7-yl)amino)pyrimidin-5-carboxamide], the pIC50 is > 8.00 against TYK2 kinase; > 8.00 against JAK1 kinase; 7.00 to 8.00 on JAK2 kinase; 7.00 to 8.00 against JAK3 kinase; 7.00 to 8.00 against SYK kinase.
On to `NC(=O)c1cnc(Nc2ccc3c(c2)NC[C@H](OCC2CCCO2)CO3)nc1NC1CC1` (stereo partly drawn) [Example 97, 4-(cyclopropylamino)-2-(((S)-2,3,4,5-tetrahydro-3-((tetrahydrofuran-2-yl)methoxy)benzo[b][1,4]oxazepin-7-yl)amino)pyrimidin-5-carboxamide], for which the pIC50 against TYK2 kinase was > 8.00; at JAK1 kinase, > 8.00; at JAK2 kinase it was 7.00 to 8.00; on JAK3 kinase it was 7.00 to 8.00; at SYK kinase it was 7.00 to 8.00.
Take `COCCCO[C@H]1CNc2cc(Nc3ncc(C(N)=O)c(NC4CC4)n3)ccc2OC1` [Example 98, 4-(cyclopropylamino)-2-(((S)-2,3,4,5-tetrahydro-3-(3-methoxypropoxy)benzo[b][1,4]oxazepin-7-yl)amino)pyrimidin-5-carboxamide]: the pIC50 against TYK2 kinase was > 8.00; on JAK1 kinase, > 8.00; on JAK2 kinase it was 7.00 to 8.00; on JAK3 kinase it was 7.00 to 8.00; on SYK kinase, 7.00 to 8.00.
`CC1(CO[C@H]2CNc3cc(Nc4ncc(C(N)=O)c(NC5CC5)n4)ccc3OC2)COC1` [Example 101, 4-(cyclopropylamino)-2-(((S)-2,3,4,5-tetrahydro-3-((3-methyloxetan-3-yl)methoxy)benzo[b][1,4]oxazepin-7-yl)amino)pyrimidin-5-carboxamide]: the pIC50 at TYK2 kinase is > 8.00; at JAK1 kinase, > 8.00; against JAK2 kinase it was 7.00 to 8.00; against JAK3 kinase, 7.00 to 8.00; against SYK kinase, 7.00 to 8.00.
